Measured values from patent US7118895B2, “Process for producing aglycon by using diglycosidase and flavor-improved food containing the aglycon and converting agent to be used in the process” (Amano Enzyme Inc., priority 2000, dated 2006).

Test system: Crude diglycosidase
Experiment: Examination of pH in the conversion into isoflavone aglycons by diglycosidase using soybean materials
Assay type: biochemical, Penicillium multicolor IAM7153
Parameters: Decomposition efficiency of genistin family in soymilk / Decomposition efficiency of genistin family in defatted soybean / Decomposition efficiency of daidzin family in defatted soybean: concentration or dose not given beside the values
Details: for Decomposition efficiency of genistin family in roasted soy flour: 55° C.
Outline: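 Soybean materials (roasted soy flour, soymilk, defatted soybean, concentrated soy protein) suspended and adjusted to pH 2–11. Crude diglycosidase added at 1.88 AU/mL enzyme solution and reacted at 55° C. Ethanol-stopped at 0, 1, 3 and 6 h; isoflavone glycosides and aglycons detected by HPLC.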

[1] = pH4.8, heat treatment of enzyme: no, reaction time 0 h
[2] = pH4.8, heat treatment of enzyme: no, reaction time 1 h
[3] = pH4.8, heat treatment of enzyme: no, reaction time 3 h
[4] = pH4.8, heat treatment of enzyme: no, reaction time 6 h
[5] = pH4.8, heat treatment of enzyme: yes, reaction time 6 h
[6] = pH6.6, heat treatment of enzyme: no, reaction time 0 h
[7] = pH6.6, heat treatment of enzyme: no, reaction time 1 h
[8] = pH6.6, heat treatment of enzyme: no, reaction time 3 h
[9] = pH6.6, heat treatment of enzyme: no, reaction time 6 h
[10] = pH6.6, heat treatment of enzyme: yes, reaction time 6 h

SMILES: O=c1c(-c2ccc(O)cc2)coc2cc(O[C@@H]3O[C@H](CO)[C@@H](O)[C@H](O)[C@H]3O)cc(O)c12 [genistin]
- Decomposition efficiency of genistin family in concentrated soybean protein (pH1.6, heat treatment of enzyme: no, reaction time 0 h): 49.7%
- Decomposition efficiency of genistin family in concentrated soybean protein (pH1.6, heat treatment of enzyme: no, reaction time 1 h): 50.2%
- Decomposition efficiency of genistin family in concentrated soybean protein (pH1.6, heat treatment of enzyme: no, reaction time 3 h): 51.6%
- Decomposition efficiency of genistin family in concentrated soybean protein (pH1.6, heat treatment of enzyme: no, reaction time 6 h): 53.3%
- Decomposition efficiency of genistin family in concentrated soybean protein (pH1.6, heat treatment of enzyme: yes, reaction time 6 h): 54.4%
- Decomposition efficiency of genistin family in roasted soy flour (pH2, heat treatment of enzyme no, reaction time 0 h): 50.0
- Decomposition efficiency of genistin family in roasted soy flour (pH2, heat treatment of enzyme no, reaction time 1 h): 49.7
- Decomposition efficiency of genistin family in roasted soy flour (pH2, heat treatment of enzyme no, reaction time 3 h): 50.7
- Decomposition efficiency of genistin family in roasted soy flour (pH2, heat treatment of enzyme no, reaction time 6 h): 52.7
- Decomposition efficiency of genistin family in roasted soy flour (pH2, heat treatment of enzyme yes, reaction time 6 h): 52.8
- Decomposition efficiency of genistin family in soymilk (pH2.3, heat treatment of enzyme: no, reaction time 0 h): 31.5%
- Decomposition efficiency of genistin family in soymilk (pH2.3, heat treatment of enzyme: no, reaction time 1 h): not detected
- Decomposition efficiency of genistin family in soymilk (pH2.3, heat treatment of enzyme: no, reaction time 3 h): not detected
- Decomposition efficiency of genistin family in soymilk (pH2.3, heat treatment of enzyme: no, reaction time 6 h): not detected
- Decomposition efficiency of genistin family in soymilk (pH2.3, heat treatment of enzyme: yes, reaction time 6 h): 35.5%
- Decomposition efficiency of genistin family in defatted soybean (pH2.6, heat treatment of enzyme: no, reaction time 0 h): 42.0%
- Decomposition efficiency of genistin family in defatted soybean (pH2.6, heat treatment of enzyme: no, reaction time 1 h): 36.3%
- Decomposition efficiency of genistin family in defatted soybean (pH2.6, heat treatment of enzyme: no, reaction time 3 h): 20.3%
- Decomposition efficiency of genistin family in defatted soybean (pH2.6, heat treatment of enzyme: no, reaction time 6 h): 20.1%
- Decomposition efficiency of genistin family in defatted soybean (pH2.6, heat treatment of enzyme: yes, reaction time 6 h): 44.3%
- Decomposition efficiency of genistin family in concentrated soybean protein (pH2.7, heat treatment of enzyme: no, reaction time 0 h): 49.7%
- Decomposition efficiency of genistin family in concentrated soybean protein (pH2.7, heat treatment of enzyme: no, reaction time 1 h): 23.1%
- Decomposition efficiency of genistin family in concentrated soybean protein (pH2.7, heat treatment of enzyme: no, reaction time 3 h): 22.1%
- Decomposition efficiency of genistin family in concentrated soybean protein (pH2.7, heat treatment of enzyme: no, reaction time 6 h): 17.5%
- Decomposition efficiency of genistin family in concentrated soybean protein (pH2.7, heat treatment of enzyme: yes, reaction time 6 h): 50.5%
- Decomposition efficiency of genistin family in roasted soy flour (pH3, heat treatment of enzyme no, reaction time 0 h): 50.0
- Decomposition efficiency of genistin family in roasted soy flour (pH3, heat treatment of enzyme no, reaction time 1 h): 3.4
- Decomposition efficiency of genistin family in roasted soy flour (pH3, heat treatment of enzyme no, reaction time 3 h): not detected
- Decomposition efficiency of genistin family in roasted soy flour (pH3, heat treatment of enzyme no, reaction time 6 h): not detected
- Decomposition efficiency of genistin family in roasted soy flour (pH3, heat treatment of enzyme yes, reaction time 6 h): 49.9
- Decomposition efficiency of genistin family in defatted soybean (pH3.4, heat treatment of enzyme: no, reaction time 0 h): 42.0%
- Decomposition efficiency of genistin family in defatted soybean (pH3.4, heat treatment of enzyme: no, reaction time 1 h): not detected
- Decomposition efficiency of genistin family in defatted soybean (pH3.4, heat treatment of enzyme: no, reaction time 3 h): not detected
- Decomposition efficiency of genistin family in defatted soybean (pH3.4, heat treatment of enzyme: no, reaction time 6 h): not detected
- Decomposition efficiency of genistin family in defatted soybean (pH3.4, heat treatment of enzyme: yes, reaction time 6 h): 44.3%
- Decomposition efficiency of genistin family in soymilk (pH3.5, heat treatment of enzyme: no, reaction time 0 h): 31.5%
- Decomposition efficiency of genistin family in soymilk (pH3.5, heat treatment of enzyme: no, reaction time 1 h): not detected
- Decomposition efficiency of genistin family in soymilk (pH3.5, heat treatment of enzyme: no, reaction time 3 h): not detected
- Decomposition efficiency of genistin family in soymilk (pH3.5, heat treatment of enzyme: no, reaction time 6 h): not detected
- Decomposition efficiency of genistin family in soymilk (pH3.5, heat treatment of enzyme: yes, reaction time 6 h): 37.0%
- Decomposition efficiency of genistin family in concentrated soybean protein (pH3.7, heat treatment of enzyme: no, reaction time 0 h): 50.7%
- Decomposition efficiency of genistin family in concentrated soybean protein (pH3.7, heat treatment of enzyme: no, reaction time 1 h): not detected
- Decomposition efficiency of genistin family in concentrated soybean protein (pH3.7, heat treatment of enzyme: no, reaction time 3 h): not detected
- Decomposition efficiency of genistin family in concentrated soybean protein (pH3.7, heat treatment of enzyme: no, reaction time 6 h): not detected
- Decomposition efficiency of genistin family in concentrated soybean protein (pH3.7, heat treatment of enzyme: yes, reaction time 6 h): 50.6%
- Decomposition efficiency of genistin family in roasted soy flour (pH4, heat treatment of enzyme no, reaction time 0 h): 49.9
- Decomposition efficiency of genistin family in roasted soy flour (pH4, heat treatment of enzyme no, reaction time 1 h): not detected
- Decomposition efficiency of genistin family in roasted soy flour (pH4, heat treatment of enzyme no, reaction time 3 h): not detected
- Decomposition efficiency of genistin family in roasted soy flour (pH4, heat treatment of enzyme no, reaction time 6 h): not detected
- Decomposition efficiency of genistin family in roasted soy flour (pH4, heat treatment of enzyme yes, reaction time 6 h): 50.2
- Decomposition efficiency of genistin family in defatted soybean [1]: 40.5%
- Decomposition efficiency of genistin family in soymilk [1]: 31.7%
- Decomposition efficiency of genistin family in defatted soybean [2]: not detected
- Decomposition efficiency of genistin family in soymilk [2]: not detected
- Decomposition efficiency of genistin family in defatted soybean [3]: not detected
- Decomposition efficiency of genistin family in soymilk [3]: not detected
- Decomposition efficiency of genistin family in defatted soybean [4]: not detected
- Decomposition efficiency of genistin family in soymilk [4]: not detected
- Decomposition efficiency of genistin family in defatted soybean [5]: 31.8%
- Decomposition efficiency of genistin family in soymilk [5]: 37.8%
- Decomposition efficiency of genistin family in roasted soy flour (pH5, heat treatment of enzyme no, reaction time 0 h): 49.9
- Decomposition efficiency of genistin family in roasted soy flour (pH5, heat treatment of enzyme no, reaction time 1 h): not detected
- Decomposition efficiency of genistin family in roasted soy flour (pH5, heat treatment of enzyme no, reaction time 3 h): not detected
- Decomposition efficiency of genistin family in roasted soy flour (pH5, heat treatment of enzyme no, reaction time 6 h): not detected
- Decomposition efficiency of genistin family in roasted soy flour (pH5, heat treatment of enzyme yes, reaction time 6 h): 52.6
- Decomposition efficiency of genistin family in concentrated soybean protein (pH5.1, heat treatment of enzyme: no, reaction time 0 h): 50.7%
- Decomposition efficiency of genistin family in concentrated soybean protein (pH5.1, heat treatment of enzyme: no, reaction time 1 h): not detected
- Decomposition efficiency of genistin family in concentrated soybean protein (pH5.1, heat treatment of enzyme: no, reaction time 3 h): not detected
- Decomposition efficiency of genistin family in concentrated soybean protein (pH5.1, heat treatment of enzyme: no, reaction time 6 h): not detected
- Decomposition efficiency of genistin family in concentrated soybean protein (pH5.1, heat treatment of enzyme: yes, reaction time 6 h): 51.4%
- Decomposition efficiency of genistin family in defatted soybean (pH5.4, heat treatment of enzyme: no, reaction time 0 h): 40.5%
- Decomposition efficiency of genistin family in defatted soybean (pH5.4, heat treatment of enzyme: no, reaction time 1 h): not detected
- Decomposition efficiency of genistin family in defatted soybean (pH5.4, heat treatment of enzyme: no, reaction time 3 h): not detected
- Decomposition efficiency of genistin family in defatted soybean (pH5.4, heat treatment of enzyme: no, reaction time 6 h): not detected
- Decomposition efficiency of genistin family in defatted soybean (pH5.4, heat treatment of enzyme: yes, reaction time 6 h): 6.2%
- Decomposition efficiency of genistin family in soymilk (pH6.2, heat treatment of enzyme: no, reaction time 0 h): 31.7%
- Decomposition efficiency of genistin family in soymilk (pH6.2, heat treatment of enzyme: no, reaction time 1 h): not detected
- Decomposition efficiency of genistin family in soymilk (pH6.2, heat treatment of enzyme: no, reaction time 3 h): not detected
- Decomposition efficiency of genistin family in soymilk (pH6.2, heat treatment of enzyme: no, reaction time 6 h): not detected
- Decomposition efficiency of genistin family in soymilk (pH6.2, heat treatment of enzyme: yes, reaction time 6 h): 38.3%
- Decomposition efficiency of genistin family in roasted soy flour (pH6.5, heat treatment of enzyme no, reaction time 0 h): 49.4
- Decomposition efficiency of genistin family in roasted soy flour (pH6.5, heat treatment of enzyme no, reaction time 1 h): not detected
- Decomposition efficiency of genistin family in roasted soy flour (pH6.5, heat treatment of enzyme no, reaction time 3 h): not detected
- Decomposition efficiency of genistin family in roasted soy flour (pH6.5, heat treatment of enzyme no, reaction time 6 h): not detected
- Decomposition efficiency of genistin family in roasted soy flour (pH6.5, heat treatment of enzyme yes, reaction time 6 h): 54.8
- Decomposition efficiency of genistin family in concentrated soybean protein [6]: 50.4%
- Decomposition efficiency of genistin family in defatted soybean [6]: 39.2%
- Decomposition efficiency of genistin family in concentrated soybean protein [7]: 13.9%
- Decomposition efficiency of genistin family in defatted soybean [7]: not detected
- Decomposition efficiency of genistin family in concentrated soybean protein [8]: 3.8%
- Decomposition efficiency of genistin family in defatted soybean [8]: not detected
- Decomposition efficiency of genistin family in concentrated soybean protein [9]: 1.7%
- Decomposition efficiency of genistin family in defatted soybean [9]: not detected
- Decomposition efficiency of genistin family in concentrated soybean protein [10]: 53.2%
- Decomposition efficiency of genistin family in defatted soybean [10]: 7.7%
- Decomposition efficiency of genistin family in soymilk (pH7.2, heat treatment of enzyme: no, reaction time 0 h): 31.2%
- Decomposition efficiency of genistin family in soymilk (pH7.2, heat treatment of enzyme: no, reaction time 1 h): not detected
- Decomposition efficiency of genistin family in soymilk (pH7.2, heat treatment of enzyme: no, reaction time 3 h): not detected
- Decomposition efficiency of genistin family in soymilk (pH7.2, heat treatment of enzyme: no, reaction time 6 h): not detected
- Decomposition efficiency of genistin family in soymilk (pH7.2, heat treatment of enzyme: yes, reaction time 6 h): 38.9%
- Decomposition efficiency of genistin family in defatted soybean (pH7.8, heat treatment of enzyme: no, reaction time 0 h): 40.4%
- Decomposition efficiency of genistin family in defatted soybean (pH7.8, heat treatment of enzyme: no, reaction time 1 h): 15.7%
- Decomposition efficiency of genistin family in defatted soybean (pH7.8, heat treatment of enzyme: no, reaction time 3 h): 12.3%
- Decomposition efficiency of genistin family in defatted soybean (pH7.8, heat treatment of enzyme: no, reaction time 6 h): 11.4%
- Decomposition efficiency of genistin family in defatted soybean (pH7.8, heat treatment of enzyme: yes, reaction time 6 h): 37.5%
- Decomposition efficiency of genistin family in roasted soy flour (pH8.5, heat treatment of enzyme no, reaction time 0 h): 55.8
- Decomposition efficiency of genistin family in roasted soy flour (pH8.5, heat treatment of enzyme no, reaction time 1 h): 28.7
- Decomposition efficiency of genistin family in roasted soy flour (pH8.5, heat treatment of enzyme no, reaction time 3 h): 19.2
- Decomposition efficiency of genistin family in roasted soy flour (pH8.5, heat treatment of enzyme no, reaction time 6 h): 14.5
- Decomposition efficiency of genistin family in roasted soy flour (pH8.5, heat treatment of enzyme yes, reaction time 6 h): 59.5
- Decomposition efficiency of genistin family in concentrated soybean protein (pH8.6, heat treatment of enzyme: no, reaction time 0 h): 53.8%
- Decomposition efficiency of genistin family in concentrated soybean protein (pH8.6, heat treatment of enzyme: no, reaction time 1 h): 50.4%
- Decomposition efficiency of genistin family in concentrated soybean protein (pH8.6, heat treatment of enzyme: no, reaction time 3 h): 45.1%
- Decomposition efficiency of genistin family in concentrated soybean protein (pH8.6, heat treatment of enzyme: no, reaction time 6 h): 36.3%
- Decomposition efficiency of genistin family in concentrated soybean protein (pH8.6, heat treatment of enzyme: yes, reaction time 6 h): 56.2%
- Decomposition efficiency of genistin family in soymilk (pH11.6, heat treatment of enzyme: no, reaction time 0 h): 34.8%
- Decomposition efficiency of genistin family in soymilk (pH11.6, heat treatment of enzyme: no, reaction time 1 h): not detected
- Decomposition efficiency of genistin family in soymilk (pH11.6, heat treatment of enzyme: no, reaction time 3 h): not detected
- Decomposition efficiency of genistin family in soymilk (pH11.6, heat treatment of enzyme: no, reaction time 6 h): not detected
- Decomposition efficiency of genistin family in soymilk (pH11.6, heat treatment of enzyme: yes, reaction time 6 h): 41.3%
